26 compounds from patent US9637469B2, “Pyridine derivative” (Teijin Pharma Limited, priority 2012, dated 2017) can be followed below.

One may read the IC50 as the concentration that gives 50% inhibition.

The target of the first experiment is T1, human URAT1 (Homo sapiens, UniProt Q96S37).
T1 construct: Full-length cDNA of human URAT1 (hURAT1)
T1 sequence (Q96S37 1-553): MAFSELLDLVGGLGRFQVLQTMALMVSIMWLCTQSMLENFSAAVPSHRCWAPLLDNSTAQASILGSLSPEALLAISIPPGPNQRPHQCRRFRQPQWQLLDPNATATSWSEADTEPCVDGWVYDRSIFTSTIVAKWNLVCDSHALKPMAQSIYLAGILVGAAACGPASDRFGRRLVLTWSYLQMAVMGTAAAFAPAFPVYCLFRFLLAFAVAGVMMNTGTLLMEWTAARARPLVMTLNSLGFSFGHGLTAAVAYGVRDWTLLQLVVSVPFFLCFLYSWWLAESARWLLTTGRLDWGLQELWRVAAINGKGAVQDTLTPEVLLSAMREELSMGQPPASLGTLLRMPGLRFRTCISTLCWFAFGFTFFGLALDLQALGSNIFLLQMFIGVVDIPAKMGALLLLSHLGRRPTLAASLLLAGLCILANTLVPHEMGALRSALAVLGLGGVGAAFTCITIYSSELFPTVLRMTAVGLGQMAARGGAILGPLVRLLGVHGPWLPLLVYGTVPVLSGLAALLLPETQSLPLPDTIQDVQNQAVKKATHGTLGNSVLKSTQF
In words: Test for inhibition of uric acid transport using human URAT1-expressing cells.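 Note: three stars up to 0.2 µM two stars 0.2-2 µM one star 2-20 µM.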 The experiment is classed as cell-based. To be noted: HEK 293 cells expressing human URAT1; 14C-labeled uric acid 25 μM; uptake 37° C. for 5 min. The procedure:
(1) Preparation of the Test Compound
The test compound was dissolved in DMSO (produced by Sigma) to a concentration of 20 mM and was subsequently used by diluting to desired concentrations.
(2) Test for Inhibition of Uric Acid Transport Using Human URAT1-Expressing Cells;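 note: three stars up to 0.2 µM two stars 0.2-2 µM one star 2-20 µM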
Full-length cDNA of human URAT1 (hURAT1) (produced by OriGene Technologies, Inc., NCBI Reference Sequence: NM 144585) was subcloned into an expression vector, pCMV6-Kan/Neo (produced by OriGene Technologies, Inc.), and hURAT1 gene was transfected into human embryonic kidney-derived cells (HEK 293 cells) by liposome method using Lipofectamine 2000 (produced by Invitrogen Corporation), whereupon HEK 293 cells expressing human URAT1 gene were screened by its Geneticin resistance. By a method similar to the following method, functional expression of human URAT1 gene was confirmed by using transport of ^14C-labeled uric acid into the cells as an index.
The HEK 293 cells expressing human URAT1 were seeded in a 24-well cell culture dish to a density of 3×10^5 cells/mL/well and were cultured in Dulbecco's modified Eagle's medium (D-MEM medium) containing 10% fetal bovine serum at 37° C. for 2 days. Thereafter, the following test for inhibition of uric acid transport was performed.
After the medium was removed by aspiration from each well, the medium was replaced with a solution obtained by substituting NaCl in Hank's Balanced Salt Solution (HBSS) with Na gluconate (hereinafter, HBSS/Na-gluconate) and the cells were preincubated at 37° C. for about 10 minutes. HBSS/Na-gluconate was removed by aspiration and a ^14C-uric acid solution that was warmed at 37° C. in advance containing various concentrations of the Example compound described in (1) and a radioactive ligand (^14C-labeled uric acid; final concentration 25 μM) was added and an uptake reaction was carried out by incubating at 37° C. for 5 min. After the incubation, ^14C-labeled uric acid solution was removed by aspiration and the cells were washed three times with ice-cold HBSS. The HEK 293 cells expressing human URAT1 were lysed in 0.2 mol/L aqueous NaOH (hereafter, the cell sample) and the cell samples were collected. The cell sample and a liquid scintillation liquid, ULTIMA GOLD (produced by PerkinElmer, Inc.) were mixed and the radioactivity was measured by a liquid scintillation counter (Beckman Coulter, Inc.).
The uric acid transport rate of the Example compound at each concentration (% of control uptake) was calculated relative to the radioactivity (radioactivity in human URAT1 expressing HEK 293 cells without addition of the Example compound (DMSO addition)) showing URAT1-specific uric acid transport as 100%, and the concentration (IC50) of the Example compound at which the uric acid transport rate is inhibited by 50% was determined. In addition, the symbols (*, **, and ***) in the table represent the following inhibitory activity values: • IC50≦_ 0.2 μM: *** • 0.2 μM<IC50≦2 μM: ** • 2 μM<IC50≦20 μM: *
`Cc1nc(-c2cccnc2)n(Cc2cc(C(F)(F)F)ccc2C(F)(F)F)c1C(=O)O` [Compound A46, 1-(2,5-bis(trifluoromethyl)benzyl)-4-methyl-2-(pyridin-3-yl)-1H-imidazole-5-carboxylic acid]: the “Inhibitory Activity (IC50 of uric acid transport inhibition)” value (from here on “Inhibitory Activity”) is given as “* *”.

For `O=C(O)c1c(-c2cccnc2)nc(-c2cccnc2)n1Cc1cc(Cl)ccc1Cl` [Compound A94, 1-(2,5-dichlorobenzyl)-2,4-di(pyridin-3-yl)-1H-imidazole-5-carboxylic acid], the “Inhibitory Activity” value is “* *”.

For `Cc1nc(-c2cccnc2)n(Cc2cc(Cl)cc(Cl)c2)c1C(=O)O` [Compound A71, 1-(3,5-dichlorobenzyl)-4-methyl-2-(pyridin-3-yl)-1H-imidazole-5-carboxylic acid], the “Inhibitory Activity” value is reported as “* * *”.

As for `O=C(O)/C=C/c1ccc(-c2cncc(F)c2)n1Cc1cc(Cl)ccc1Cl` [Compound B35, (E)-3-(1-(2,5-dichlorobenzyl)-2-(5-fluoropyridin-3-yl)-1H-pyrrol-5-yl)acrylic acid], the “Inhibitory Activity” value was “* * *”.

Consider `O=C(O)c1c(I)nc(-c2cccnc2)n1Cc1cc(Cl)ccc1Cl` [Compound A90, 1-(2,5-dichlorobenzyl)-4-iodo-2-(pyridin-3-yl)-1H-imidazole-5-carboxylic acid], for which the “Inhibitory Activity” value is “* * *”.

On to `Cc1nc(Oc2cncc(Cl)c2)n(Cc2cc(Cl)ccc2Cl)c1C(=O)O` [Compound A250, 2-((5-chloropyridin-3-yl)oxy)-1-(2,5-dichlorobenzyl)-4-methyl-1H-imidazole-5-carboxylic acid], for which the “Inhibitory Activity” value is listed as “* * *”.

Take `O=C(O)c1ccc(-c2cccnc2)n1Cc1csc2cccc(Cl)c12` [Compound B10, 1-((4-chlorobenzo[b]thiophen-3-yl)methyl)-2-(pyridin-3-yl)-1H-pyrrole-5-carboxylic acid]: the “Inhibitory Activity” value is “* * *”.

For the compound `CCC(O)(CC)c1nc(-c2cncc(C)c2)n(Cc2cc(Cl)ccc2Cl)c1C(=O)O` [Compound A217, 1-(2,5-dichlorobenzyl)-4-(3-hydroxypentan-3-yl)-2-(5-methylpyridin-3-yl)-1H-imidazole-5-carboxylic acid], the “Inhibitory Activity” value is on record as “* * *”.

Regarding `Cc1cncc(-c2nc(C(C)(C)O)c(C(=O)O)n2Cc2cc(Cl)ccc2Cl)c1` [Compound A214, 1-(2,5-dichlorobenzyl)-4-(2-hydroxypropan-2-yl)-2-(5-methylpyridine-3-yl)-1H-imidazole-5-carboxylic acid], the “Inhibitory Activity” value is given as “* * *”.

As to `Cc1nc(-c2cccnc2)n(Cc2cc(F)cc3ccsc23)c1C(=O)O` [Compound A85, 1-((5-fluorobenzo[b]thiophen-7-yl)methyl)-4-methyl-2-(pyridin-3-yl)-1H-imidazole-5-carboxylic acid], the “Inhibitory Activity” value is “* * *”.

Consider `O=C(O)c1c(Cn2ccnc2)nc(-c2cncc(Cl)c2)n1Cc1cc(Cl)ccc1Cl` [Compound A199, 4-((1H-imidazol-1-yl)methyl)-2-(5-chloropyridin-3-yl)-1-(2,5-dichlorobenzyl)-1H-imidazole-5-carboxylic acid], for which the “Inhibitory Activity” value is listed as “* *”.

As to `O=C(O)c1c(CN2CCCC2)nc(-c2cncc(Cl)c2)n1Cc1cc(Cl)ccc1Cl` [Compound A194, 2-(5-chloropyridin-3-yl)-1-(2,5-dichlorobenzyl)-4-(pyrrolidin-1-ylmethyl)-1H-imidazole-5-carboxylic acid], the “Inhibitory Activity” value is reported as “* * *”.

For `CN(C)Cc1nc(-c2cncc(Cl)c2)n(Cc2cc(Cl)ccc2Cl)c1C(=O)O` [Compound A192, 2-(5-chloropyridin-3-yl)-1-(2,5-dichlorobenzyl)-4-((dimethylamino)methyl)-1H-imidazole-5-carboxylic acid], the “Inhibitory Activity” value was “* *”.

For the compound `CCC(O)(CC)c1nc(-c2cncc(F)c2)n(Cc2cc(Cl)ccc2Cl)c1C(=O)O` [Compound A215, 1-(2,5-dichlorobenzyl)-2-(5-fluoropyridin-3-yl)-4-(3-hydroxypentan-3-yl)-1H-imidazole-5-carboxylic acid], the “Inhibitory Activity” value is “* * *”.

`Cc1nc(-c2cncc(Br)c2)n(Cc2cc(Cl)ccc2Cl)c1C(=O)O` [Compound A177, 2-(5-bromopyridin-3-yl)-1-(2,5-dichlorobenzyl)-4-methyl-1H-imidazole-5-carboxylic acid]: the “Inhibitory Activity” value is “* * *”.

For `Cc1nc(-c2cncc(F)c2)n(Cc2sc(Cl)cc2Cl)c1C(=O)O` [Compound A228, 1-((2,4-dichlorothiophen-5-yl)methyl)-2-(5-fluoropyridin-3-yl)-4-methyl-1H-imidazole-5-carboxylic acid], the “Inhibitory Activity” value is on record as “* *”.

Take `O=C(O)c1c(-c2ccc(F)cc2)nc(-c2cccnc2)n1Cc1cc(Cl)ccc1Cl` [Compound A93, 1-(2,5-dichlorobenzyl)-4-(4-fluorophenyl)-2-(pyridin-3-yl)-1H-imidazole-5-carboxylic acid]: the “Inhibitory Activity” value was “* * *”.

As to `Cc1cncc(-c2ccc(C(=O)O)n2Cc2csc3cccc(Cl)c23)c1` [Compound B15, 1-((4-chlorobenzo[b]thiophen-3-yl)methyl)-2-(5-methylpyridin-3-yl)-1H-pyrrole-5-carboxylic acid], the “Inhibitory Activity” value was “* * *”.

`O=C(O)c1c(CN2CCOCC2)nc(-c2cncc(Cl)c2)n1Cc1cc(Cl)ccc1Cl` [Compound A196, 2-(5-chloropyridin-3-yl)-1-(2,5-dichlorobenzyl)-4-(morpholinomethyl)-1H-imidazole-5-carboxylic acid]: the “Inhibitory Activity” value is “* * *”.

As to `O=C(O)c1c(Cn2cccn2)nc(-c2cncc(Cl)c2)n1Cc1cc(Cl)ccc1Cl` [Compound A200, 4-((1H-pyrazol-1-yl)methyl)-2-(5-chloropyridin-3-yl)-1-(2,5-dichlorobenzyl)-1H-imidazole-5-carboxylic acid], the “Inhibitory Activity” value is reported as “* * *”.

On to `Cc1nc(-c2cccnc2F)n(Cc2cc(Cl)ccc2Cl)c1C(=O)O` [Compound A160, 1-(2,5-dichlorobenzyl)-2-(2-fluoropyridin-3-yl)-4-methyl-1H-imidazole-5-carboxylic acid], for which the “Inhibitory Activity” value was “* *”.

The same experiment, now with this note: HEK 293 cells expressing human URAT1; 14C-labeled uric acid 25 μM; uptake 37° C. for 5 min; read-out: Inhibitory Activity (IC50 of uric acid transport inhibition).
On to `O=C(O)c1cnc(-c2cccnc2)n1Cc1cccc2ccccc12` [Compound A12], for which the IC50 is 2 to 20 µM.

With `Cc1nc(-c2cccnc2)n(Cc2cccc3ccsc23)c1C(=O)NS(=O)(=O)C1CC1` [Compound A116], the half-maximal inhibitory concentration (IC50) lay within 2 to 20 µM.

Consider `O=C(O)c1c(OCCO)nc(-c2cccnc2)n1Cc1cc(Cl)ccc1Cl` [Compound A97], for which the IC50 was 2 to 20 µM.

Take `Cc1nc(-c2cncc(OCCO)c2)n(Cc2cc(Cl)ccc2Cl)c1C(=O)O` [Compound A186]: the IC50 was 2 to 20 µM.

For the compound `Cc1nc(-c2cccnc2)n(Cc2cccc3ccsc23)c1C(=O)NS(C)(=O)=O` [Compound A115], the IC50 lay in the range of 2 to 20 µM.
